From patent US9795137B2, “Metalaxyl and prothioconazole cocrystals and methods of making and using” (Bayer CropScience LP, priority 2012, dated 2017)
≈ marks a conversion by molar mass, not a printed value. Where two headings read alike, the source gives them in different places.

Columns and labels:
[1] = water solubility measurements at pH 7.0 in an aspect, cited from earlier work
[2] = Water solubility of saturated solutions at pH 7.0, measured by HPLC; settings: metalaxyl and prothioconazole as separate compounds (0.2 g each in one bottle), 10 mL pH 7.0 buffer, stirred about 12 hours at 20° C.±1° C.
Experimental: A saturated solution of metalaxyl and prothioconazole as separate compounds was prepared by the following procedure: 0.2 grams each of metalaxyl and prothioconazole were weighed and placed into a 0.5 oz bottle. 10 mL of pH 7.0 (Fisher #SB107-500) was added to the bottle. A magnetic stir bar was added to the bottle and the bottle was capped and shaken. The bottle was placed on a magnetic stirrer for about 12 hours at a temperature of 20° C.±1° C. stirring on low.
10 mL of pH 7.0 (Fisher #SB107-500) was added to the bottle. A magnetic stir bar was added to the bottle and the bottle was capped and shaken. The bottle was placed on a magnetic stirrer for about 12 hours in a room at 20° C.±1° C., stirring on low.

SMILES	water solubility ([1]; at 22° C.)	solubility at pH 7.0 [2]	water solubility ([1]; at 25° C.)
COCC(=O)N(c1c(C)cccc1C)C(C)C(=O)OC (racemic) [metalaxyl, N-(2,6-dimethylphenyl)-N-(methoxyacetyl)-DL-alanine methyl ester]	about 8.4 g/l	0.62%	
OC(Cc1ccccc1Cl)(Cn1nc[nH]c1=S)C1(Cl)CC1 (stereo not shown) [prothioconazole, 2-[2-(1-chlorocyclopropyl)-3-(2-chlorophenyl)-2-hydroxypropyl]-1,2-dihydro-3H-1,2,4-triazole-3-thione]		0.0002%	610 µg/L (≈ 1.77 µM)
